Laboratory results as given in publication PMC8648872, “A host-directed macrocyclic peptide therapeutic for MDR gram negative bacterial infections” (Scientific Reports, 2021).
Converted amounts (≈) assume the structure as drawn. Where two headings read alike, the source gives them in different places. Where a SMILES comes first, the peptide text is derived from it. Bridges are numbered along the chain shown (N, C = ends).

Tests used:
[1] = tested on: Kp-1705 (K. pneumoniae BAA-1705); experiment: Kp-1705 bacteremic sepsis, survival; type: in vivo, BALB/c mice; settings: Kp-1705 i.p. in BALB/c mice; single i.p. dose 1.25 mg/kg 1 h p.i.
Method: BALB/c mice (Jackson Laboratories) 8–10 weeks of age were acclimated (3–5 to a cage for at least 5 days prior to infection) in a thermostatically controlled room with 12 h light/dark cycle. Cryopreserved K. pneumoniae cells were thawed and adjusted to a density of 6–10 × 10^8 CFU/ml, confirmed by plating on trypticase soy agar (TSA) plates. E. coli BAA-2340 was grown to log-phase in trypticase soy broth, pelleted, washed with PBS, and resuspended in PBS at 0.5–1 × 10^9 CFU/ml. Mice were infected by i.p. injection of 2–5 × 10^8 CFU of Kp-1705 or 3–6 × 10^7 CFU of E. coli BAA-2340 using a 28 g needle in a volume of 0.5 ml. Post-infection, mice were observed three times a day for at least 4 days and then daily for 28 days. Mice were euthanized when they became moribund. All experiments used both male and female mice and were repeated at least twice.

E. coli ML35 = experiment: microbe, parasite or virus in culture; type: cell-based; settings: E. coli ML35, no MDR factor
Method: (§1) Bacterial strains were obtained from American Type Culture Collection. K. pneumoniae strains included BAA-1705 (blaKPC-2, hypermucoid), BAA-2146 (blaNDM-1), BAA-700603 (SHV-18, extended spectrum β-lactamase, ESBL), and BAA-1706 (non-CRE reference strain). E. coli strains included BAA-2340 (blaKPC-2), BAA-2471 (blaNDM-1), and ML35 (non-CRE reference strain).
(§2) Minimum inhibitory concentration (MIC) assays were performed ± 50% heat-inactivated mouse serum using Clinical and Laboratory Standards Institute (CLSI; document M07-A9) protocols. Bacteria (5 × 10^5 CFU/ml) were incubated with antibiotics or peptide for 20 h at 37 °C, and bacterial growth was determined by A620 using a SpectraMax M5e plate reader.

K. pneumoniae BAA-1706 = experiment: microbe, parasite or virus in culture; type: cell-based
Method: as §1, §2

E. coli BAA-2340 (KPC-2) = experiment: microbe, parasite or virus in culture; type: cell-based
Method: as §1, §2

E. coli BAA-2471 (NDM-1) = experiment: microbe, parasite or virus in culture; type: cell-based
Method: as §1, §2

[2] = tested on: K. pneumoniae BAA-2146 (NDM-1); experiment: microbe, parasite or virus in culture; type: cell-based
Method: as §1, §2

[3] = tested on: K. pneumoniae BAA-1705 (KPC-2); experiment: microbe, parasite or virus in culture; type: cell-based; settings: 37 °C
Method: as §1, §2

[4] = tested on: K. pneumoniae 700603 (ESBL); experiment: microbe, parasite or virus in culture; type: cell-based
Method: as §1, §2

[5] = tested on: CRE and non-CRE strains of K. pneumoniae and E. coli; type: cell-based; settings: standard CLSI assay conditions
Method: as §1, §2

disseminated candidiasis = settings: mouse models of disseminated candidiasis; cited from earlier work
Text: MTD12813 is a bioinspired macrocyclic peptide that is structurally related to naturally occurring θ-defensins. RTD-1, the prototype θ-defensin, was identified as a broad-spectrum antimicrobial peptide in vitro[8],[9]. […] Mechanisms implicated in the moderation of cytokine-driven inflammation include modulation of NFκB and MAPK pathways, suppression of TNF release via the inhibition of the pro-TNF sheddase TACE (ADAM17)[26], and dis ...

[6] = 50% heat inactivated mouse serum
[7] = CLSI, 20 h, 37 °C, A620, no serum
[8] = K. pneumoniae BAA-1706, no MDR factor, 50% heat inactivated mouse serum
[9] = K. pneumoniae BAA-1706, no MDR factor, CLSI, 20 h, 37 °C, A620, no serum
[10] = E. coli BAA-2340, KPC-2, 50% heat inactivated mouse serum
[11] = E. coli BAA-2340, KPC-2, CLSI, 20 h, 37 °C, A620, no serum
[12] = CLSI M07-A9, 5 × 10^5 CFU/ml, 20 h, A620, no serum
[13] = in the presence of 50% heat inactivated mouse serum, 20 h, A620
[14] = Escherichia coli, 50% heat inactivated mouse serum, read-out: MIC
[15] = Escherichia coli, CLSI, 20 h, 37 °C, A620, no serum, read-out: MIC
[16] = Klebsiella pneumoniae, BAA1706, K. pneumoniae BAA-1706, no MDR factor, 50% heat inactivated mouse serum, read-out: MIC
[17] = Escherichia coli, BAA2471, 50% heat inactivated mouse serum, read-out: MIC
[18] = Escherichia coli, BAA2471, CLSI, 20 h, 37 °C, A620, no serum, read-out: MIC
[19] = Klebsiella pneumoniae, BAA2146, 50% heat inactivated mouse serum, read-out: MIC
[20] = Klebsiella pneumoniae, BAA2146, CLSI, 20 h, 37 °C, A620, no serum, read-out: MIC
[21] = Klebsiella pneumoniae, BAA1705, CLSI M07-A9, 5 × 10^5 CFU/ml, 20 h, A620, no serum, read-out: MIC
[22] = Klebsiella pneumoniae, 50% heat inactivated mouse serum, read-out: MIC
[23] = Klebsiella pneumoniae, CLSI, 20 h, 37 °C, A620, no serum, read-out: MIC

| Compound | long term (≥ 28 days) survival [1] | MIC (E. coli ML35; [6]) | MIC (E. coli ML35; [7]) | MIC (K. pneumoniae BAA-1706; [8]) | MIC (K. pneumoniae BAA-1706; [9]) | MIC (E. coli BAA-2340 (KPC-2); [10]) | MIC (E. coli BAA-2340 (KPC-2); [11]) | MIC (E. coli BAA-2471 (NDM-1); [6]) | MIC (E. coli BAA-2471 (NDM-1); [7]) | MIC [2, 6] | MIC [2, 7] | MIC [3, 12] | MIC [3, 13] | MIC [4, 6] | MIC [4, 7] | MIC against all seven organisms of the panel [5] | MIC (E. coli ML35; [14]) | MIC (E. coli ML35; [15]) | MIC (K. pneumoniae BAA-1706; [16]) | MIC (E. coli BAA-2340 (KPC-2); Escherichia coli, BAA2340) | other results |
| --- | --- | --- | --- | --- | --- | --- | --- | --- | --- | --- | --- | --- | --- | --- | --- | --- | --- | --- | --- | --- | --- |
| Colistin | 100% | < 0.78 µg/mL | < 0.78 µg/mL | < 0.78 µg/mL | < 0.78 µg/mL | < 0.78 µg/mL | < 0.78 µg/mL | < 0.78 µg/mL | < 0.78 µg/mL | < 0.78 µg/mL | < 0.78 µg/mL | < 0.78 µg/mL | < 0.78 µg/mL | < 0.78 µg/mL | < 0.78 µg/mL | < 0.78 µg/mL |  |  |  |  |  |
| C[C@@H](O)[C@H]1C(=O)N2C(C(=O)O)=C(SCCN=CN)C[C@H]12 [Imipenem] | neither carbapenem provided significant survival benefit |  |  |  |  |  |  |  |  |  |  |  |  |  |  |  | < 0.78 µg/mL | < 0.78 µg/mL | < 0.78 µg/mL | 6.25 µg/mL (≈ 20.9 µM) | MIC (K. pneumoniae BAA-1706; Klebsiella pneumoniae, BAA1706, K. pneumoniae BAA-1706, no MDR factor, CLSI, 20 h, 37 °C, A620, no serum, read-out: MIC): 3.13 µg/mL (≈ 10.5 µM); MIC (E. coli BAA-2340 (KPC-2); Escherichia coli, BAA2340, E. coli BAA-2340, KPC-2, CLSI, 20 h, 37 °C, A620, no serum, read-out: MIC): 25 µg/mL (≈ 83.5 µM); MIC (E. coli BAA-2471 (NDM-1); [17]): 25 µg/mL (≈ 83.5 µM); MIC (E. coli BAA-2471 (NDM-1); [18]): 50 µg/mL (≈ 167 µM); MIC [2, 19]: 25 µg/mL (≈ 83.5 µM); MIC [2, 20]: > 100 µg/mL; MIC ([3]; Klebsiella pneumoniae, BAA1705, 20 h, in the presence of 50% heat inactivated mouse serum, A620): 12.5 µg/mL; MIC [3, 21]: > 100 µg/mL; MIC [4, 22]: < 0.78 µg/mL; MIC [4, 23]: < 0.78 µg/mL |
| C[C@@H](O)[C@H]1C(=O)N2C(C(=O)O)=C(S[C@@H]3CN[C@H](C(=O)N(C)C)C3)[C@H](C)[C@H]12 [Meropenem] | neither carbapenem provided significant survival benefit |  |  |  |  |  |  |  |  |  |  |  | 50 µg/mL |  |  |  | < 0.78 µg/mL | < 0.78 µg/mL | < 0.78 µg/mL | 6.25 µg/mL (≈ 16.3 µM) | MIC (K. pneumoniae BAA-1706; Klebsiella pneumoniae, BAA1706, 20 h): 1.56 µg/mL (≈ 4.07 µM); MIC (E. coli BAA-2340 (KPC-2); Escherichia coli, BAA2340, 20 h): 6.25 µg/mL (≈ 16.3 µM); MIC (E. coli BAA-2471 (NDM-1); [17]): > 100 µg/mL; MIC (E. coli BAA-2471 (NDM-1); [18]): 50 µg/mL (≈ 130 µM); MIC [2, 19]: > 100 µg/mL; MIC [2, 20]: 100 µg/mL (≈ 261 µM); MIC [3, 21]: 50 µg/mL (≈ 130 µM); MIC [4, 22]: < 0.78 µg/mL; MIC [4, 23]: < 0.78 µg/mL |
| Polymyxin B | 95% | < 0.78 µg/mL | < 0.78 µg/mL | < 0.78 µg/mL | < 0.78 µg/mL | < 0.78 µg/mL | < 0.78 µg/mL | < 0.78 µg/mL | < 0.78 µg/mL | < 0.78 µg/mL | < 0.78 µg/mL | < 0.78 µg/mL | < 0.78 µg/mL | < 0.78 µg/mL | < 0.78 µg/mL | < 0.78 µg/mL |  |  |  |  |  |
| CC[C@H](C)[C@@H]1NC(=O)[C@@H]2CSSC[C@H](NC(=O)[C@H](CCCNC(=N)N)NC(=O)[C@@H]3CSSC[C@H](NC1=O)C(=O)N[C@@H]([C@@H](C)O)C(=O)N[C@@H](CCCNC(=N)N)C(=O)NCC(=O)N[C@@H](Cc1ccccc1)C(=O)N3)C(=O)N[C@@H](CC(C)C)C(=O)N[C@H]1CSSC[C@H](NC(=O)[C@H](C(C)C)NC(=O)CNC(=O)[C@H](CCCNC(=N)N)NC(=O)[C@H](CCCNC(=N)N)NC1=O)C(=O)N[C@@H](CCCNC(=N)N)C(=O)N2 [RTD-1] (cyclo(GFCRCLCRRGVCRCICTR); disulfide 3-16, 5-14, 7-12) |  | > 100 µg/mL | 25 µg/mL (≈ 12 µM) | > 100 µg/mL | > 100 µg/mL | > 100 µg/mL | 50 µg/mL (≈ 24 µM) | > 100 µg/mL | 25 µg/mL (≈ 12 µM) | > 100 µg/mL | 100 µg/mL (≈ 48 µM) | > 100 µg/mL | > 100 µg/mL | > 100 µg/mL | > 100 µg/mL |  |  |  |  |  | plasma Cmax as share of the MIC of the peptide (disseminated candidiasis): < 1% |
